# Results from PubChem BioAssay AID651717 (Broad Institute, 2012).
# Tested on: mESC Bmi1-luciferase reporter, firefly/renilla ratio, 24 h
# Test: compounds raising Bmi1 reporter signal – mouse embryonic stem cells, luciferase, cherry-pick, esBAF inhibitor project, dose response (AID 651717);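 note: luciferase knocked into Bmi1 locus with EF-1a renilla as cell number control; rising ratio signals esBAF inhibition which derepresses Bmi1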
row,Structure (SMILES),AC40
1,COc1ccc2c(=O)c3ccccc3oc2c1,4.7 µM
2,Cc1cc(N2CCOCC2)nc2ccc(NC(=O)CCC(=O)N3CCN(c4ccccc4F)CC3)cc12,4.59 µM
3,CCn1c(COc2ccc(OC)cc2)nc2ccccc21,2.81 µM
4,O=C(Nc1ccccc1)c1cc(C2CCCN(C(=O)CCc3ccccc3)C2)on1 (configuration not stated),5.03 µM
5,Fc1cc(Cl)cc2ccc(-c3ccccc3)nc12,1.45 µM
6,c1ccc(-c2nc3c(ccc4ccccc43)[nH]2)nc1,0.96 µM
7,COc1ccc(NC(=O)Cc2ccccc2)cc1,8.22 µM
8,COc1cccc(NC(=O)N2CCN(c3cccc(C)c3C)CC2)c1,4.88 µM
9,OC(c1ccccc1)c1nc(-c2ccc3c(c2)OCO3)cs1 (configuration not stated),3.37 µM
10,Clc1ccc(-c2cn3cccnc3n2)cc1Cl,3.56 µM
11,CC(C)Cc1cc(C(=O)Nc2ccc(Br)cc2)no1,2.96 µM
12,Cc1ccc(Nc2nc(-c3cccnc3)cs2)cc1Cl,0.961 µM
13,FC(F)Oc1ccccc1/C=N/Nc1nc2ccccc2o1,3.81 µM
14,CCC(=O)Nc1nc(-c2ccc3c(c2)CC(C)N3S(C)(=O)=O)cs1 (configuration not stated),7.5 µM
15,CCCC1(C)Nc2ccccc2-c2nc3ccccc3n21 (configuration not stated),11.3 µM
16,O=C(COC(=O)c1cc2ccccc2oc1=O)Nc1cccc(S(=O)(=O)N2CCCCCC2)c1,12.7 µM
17,CCCNC(=O)Nc1ccc2c(c1)C(=O)N(C)C[C@H](OC)[C@@H](C)CN(Cc1ccc(-c3ccccn3)cc1)[C@@H](C)CO2,14.1 µM
18,COc1cc2[nH]c(C(=O)N3CCc4ccccc43)cc2c(OC)c1OC,2.77 µM
19,CC1(C)CNC(=O)c2sc(NC(=O)c3ccccc3)nc2C1,4.76 µM
20,Cc1cc(-c2nnco2)c(C)n1-c1ccccc1,6.01 µM
21,Cc1ccc(Nc2nc3c(c(=O)[nH]2)CCCC3)cc1,8.9 µM

row,Structure (SMILES),AC40
1,Cn1c(CSc2ccccc2)c(C#N)c2ccccc21,6.77 µM
2,CNC(=O)c1ccc(-c2ccccc2)s1,5.62 µM
3,CC(C)C1C(=O)N(Cc2cn(CCC3OCCCO3)nn2)CCS(=O)(=O)N1Cc1ccc(-c2ccc(Cl)nc2)cc1 (configuration not stated),17.8 µM
4,CC(=O)Nc1ccc(NC(=O)c2cc(-c3ccc(F)cc3C)n[nH]2)cc1,7.08 µM
5,CCC(=O)Nc1cccc(-c2nc3ccccc3o2)c1,15.7 µM
6,COc1ccc2c(CN(C)Cc3ccccc3)cc(=O)oc2c1,0.841 µM
7,O=C(NNC(=O)c1ccccc1OCc1ccccc1)c1ccccc1F,11.5 µM
8,Cc1ccc(NC(=O)C2CCCN(c3ncccn3)C2)cc1F (configuration not stated),1.16 µM
9,O=C(NCCCc1ccccc1)c1ccccc1O,10.7 µM
10,Cc1cccc(NC(=O)c2cc(-c3cc(Cl)ccc3O)n[nH]2)c1,2.08 µM
11,O=C(COC(=O)[C@H](Cc1c[nH]c2ccccc12)NC(=O)c1ccc(Cl)cc1)Nc1ccc2c(c1)OCO2,10.5 µM
12,COc1ccccc1CCC(=O)Nc1nc2ccccc2[nH]1,3 µM
13,CC(=O)Nc1ccc(-c2nc3c(C)cccc3[nH]2)cc1,1.25 µM
14,CCN(CC)S(=O)(=O)c1cccc(-c2nc3n(n2)Cc2ccccc2-3)c1,21.7 µM
15,CN(c1nc(-c2ccccc2)cs1)C1CCS(=O)(=O)C1 (configuration not stated),20.3 µM
16,COc1cccc(OCc2cc(C(=O)N(C)C3CCCCC3)no2)c1,4.53 µM
17,COC(=O)c1ccc(COC(=O)CNC(=O)c2ccc(OC)cc2)cc1,6.87 µM
18,CCN(C(=O)CN1C(=O)S/C(=C\C=C\c2ccccc2)C1=O)C1CCS(=O)(=O)C1 (configuration not stated),3.85 µM
19,Cc1ccc2sc(NC(=O)C3CC3)nc2c1C,6.72 µM
20,Cc1noc(C)c1C(=O)Nc1nc2ccccc2s1,3.83 µM
21,CCSc1ccc(/C(N)=N/OC(=O)c2cccs2)cn1,8.66 µM

row,Structure (SMILES),AC40
1,Cc1ccc(C(=O)N2CCc3ccccc32)cc1C,3.55 µM
2,C=CCNc1nc2cc(-c3ccccc3OC)sc2c(=O)n1C,5.18 µM
3,Nc1cc2c(cc1Cl)-c1ccccc1C2,6.53 µM
4,Oc1cccc(Nc2nc(O)c(/C=C3\C=Nc4ccccc43)s2)c1,4.88 µM
5,CC(C)C(=O)N1CCN(c2nc3ccc(Cl)cc3s2)CC1,3.33 µM
6,COC(=O)c1ccc(COC(=O)c2ccc(SC)cc2OC)cc1,8.51 µM
7,Nc1nc(SCc2ccccc2)c2ncn(C3CCCCC3)c2n1,2.09 µM
8,CC1CCN(c2oc(-c3cccc4ccccc34)nc2C#N)CC1,2.52 µM
9,c1ccc2nc3c(ccc4ccccc43)cc2c1,0.939 µM
10,O=S(=O)(c1ccc2ccccc2c1)N1CCN(S(=O)(=O)c2c(F)cccc2F)CC1,1.26 µM
11,Cc1cc(N2CCOCC2)nc2ccc(NC(=O)CCC(=O)N3CCN(c4ccccc4)CC3)cc12,11 µM
12,CC(=O)Nc1ccc(CNc2nc3cc(-c4ccc(F)cc4)sc3c(=O)n2C)cc1,1.69 µM
13,O=C(Nc1ccncc1)c1ccc2ncsc2c1,22.8 µM
14,O=C(c1cc(-c2ccc(Cl)cc2)on1)N1CCN(c2ccccc2)CC1,6.4 µM
15,COc1ccc(NC(=O)O/N=C/c2ccccc2)cc1,5.24 µM
16,COc1cccc(/C=N/n2c(N)nc3ccccc32)c1OC,3.21 µM
17,COc1ccc(-c2cc3ccccc3s2)cc1[C@H]1[C@H]2C=CC[C@@H](C)[C@@H]2C(=O)N1Cc1ccccc1,1.53 µM
18,O=C(NCc1ccccc1)c1cc(-c2cccc(O)c2)on1,12.6 µM
19,O=C(CCNC(=O)c1ccccc1)Nc1nc2ccccc2s1,3.91 µM
20,COc1ccc(Cc2nc3ccc(C(=O)NCCCSC)cc3o2)cc1OC,4.92 µM
